SMILES strings stand for the structures. Bounds are passed on as bounds.

For one data set, the system named is Pontoscolex corethrurus. To be noted: chronic/long-term; growth.
For another data set, the system named is Oryctolagus sp. To be noted: developmental; development.
The next data set deals with Canidae. To be noted: chronic; duration: 1 years; oral; Dog Other; organ weight.
A further data set deals with Apis mellifera. To be noted: acute, mortality.
The subject of the next data set is Daphnia magna. To be noted: chronic/long-term; duration: 21 days; reproduction.
Another data set has as its system Folsomia candida. To be noted: chronic/long-term; mortality.
A further data set relates to Bibionidae. To be noted: chronic/long-term; duration: 28 days; seedling emergence.
A further data set has as its system Mus musculus. To be noted: chronic; duration: 18 months; mortality.

Take `CC(COc1ccc(Oc2ccccc2)cc1)Oc1ccccn1` (centres undefined) [Pyriproxyfen]: the NOEC in the data set with Pontoscolex corethrurus turned out to be 50 mg/kg; in the data set on Anas platyrhynchos (chronic/long-term) it was 70.2 mg/kg-day; in the data set on Daphnia magna, 0.015 µg/L; in the data set on Folsomia candida it was 12.5 mg/kg; in the data set with Bibionidae, 3.1 µg/L. For the same molecule, the LD50 is above 1910 mg/kg-day in the data set on Anas platyrhynchos (acute, oral, unspecified, mortality); above 100 µg/piece with Apis mellifera (dermal); 74 µg/piece in the data set on Apis mellifera (oral, unspecified); above 5000 mg/kg-day in the data set on Rattus norvegicus (acute, oral, mortality). The molecule further registered an LC50 with Anas platyrhynchos (short-term, oral, feed, mortality) above 1260 mg/kg-day. Further, the NOAEL (commonly the highest tested level that showed no adverse finding) with Oryctolagus sp. came out at 100 mg/kg-day; in the data set with Canidae, 10 mg/kg-day; in the data set on Rattus norvegicus (reproduction developmental, organ weight), 13.3 mg/kg-day. Further, the LOAEL (usually the lowest tested level that showed an adverse finding) in the data set with Mus musculus was determined as 16.4 mg/kg-day.

(Values after EPA's ToxValDB 9.5 (doi:10.2903/j.efsa.2019.5732).)
